What all share (type): cell-based
The target in test [1] is T1, human 5-HT3A receptor N101A mutant (Homo sapiens, UniProt P46098, N123A).
T1 construct: expressed in transfected cells; host or cells: Xenopus oocytes injected with mutant mRNA
T1 sequence (P46098 24-478 N123A): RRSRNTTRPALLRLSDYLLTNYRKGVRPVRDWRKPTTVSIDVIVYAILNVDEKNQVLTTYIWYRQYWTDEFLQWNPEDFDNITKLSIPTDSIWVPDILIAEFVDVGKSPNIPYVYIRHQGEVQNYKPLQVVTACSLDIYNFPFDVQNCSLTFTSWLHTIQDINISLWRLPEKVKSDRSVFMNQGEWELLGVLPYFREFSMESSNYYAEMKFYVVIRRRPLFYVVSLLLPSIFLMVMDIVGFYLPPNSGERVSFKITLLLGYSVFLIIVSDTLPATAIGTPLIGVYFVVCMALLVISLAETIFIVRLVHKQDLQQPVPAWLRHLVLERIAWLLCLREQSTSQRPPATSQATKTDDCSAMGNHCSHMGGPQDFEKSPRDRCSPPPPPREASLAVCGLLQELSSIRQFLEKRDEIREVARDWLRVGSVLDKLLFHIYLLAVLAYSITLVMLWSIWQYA
The experiment in a line: Two-electrode voltage clamp, I5-HT inhibition, N101A mutant. As for the experimental part: Human 5-HT3A receptor cDNA was linearized using restriction enzyme XhoI. In vitro transcription was performed using an mMESSAGE mMACHINE T7 Transcription Kit (Thermo Fisher Scientific, Waltham, MA, USA). The final mRNA product was dissolved in 1X Diethyl Pyrocarbonate (RNase-free water) at a final concentration of 1 μg/μL and kept in a deep-freezer at −80 °C until used.
Xenopus oocytes were used in this study as cells for expression of human 5-HT3A receptor. All female frogs used in this experiment were obtained from the Korean Xenopus Resource Center for Research (KXRCR000001). […] Isolated oocytes were incubated with ND96 incubation buffer (96 mM NaCl, 2 mM KCl, 1 mM MgCl2, 1.8 mM CaCl2, 5 mM HEPES, 2.5 mM sodium pyruvate, and […], pH 7.4) at 18 °C until the experiment was performed. Human 5-HT3A receptor mRNA was injected into oocytes using a nanoinjector (Drummond Scientific, Broomall, PA, USA) with a mineral-filled 10 μL microdispenser (VWR, Piscataway, NJ, USA).
For the experiment, induced-inward current was converted to digital data with pClamp 10 software (Axon Instruments, Union City, CA, USA). All experiments were performed at room temperature using an oocyte clamp equipped with Digidata. The membrane holding potential was −80 mV.
The voltage relationship experiment for confirming the relationship between induce-inward current and voltage, the voltage was varied from −80 mV to +60 mV using a ramp protocol. Each microelectrode was filled with 3 M KCl having a resistance of 0.2 MΩ. Serotonin and KAE applied in the experiment were diluted in ND96 bath solution (96 mM NaCl, 2 mM KCl, 1 mM MgCl2, 1.8 mM CaCl2, and 5 mM HEPES, pH 7.5) to specified concentration. The rate of application of the reagent was 2 mL per minute. All recording data were analyzed using Clampfit 9.0 (Molecular Devices, San Jose, CA, USA). […]
All presented experiments were performed at least three times for scientific verification. […] Induced-inward current data were analyzed with SigmaPlot 10.0 software (Systat Software, Inc., San Jose, CA, USA).

The target in test [2] is T2, human 5-HT3A receptor R65A mutant (Homo sapiens, UniProt P46098, R87A).
T2 sequence (P46098 24-478 R87A): T1 sequence (P46098 24-478 N123A) with R64A, A100N
As to the kind of experiment: Two-electrode voltage clamp, I5-HT inhibition, R65A mutant. To be noted: −80 mV. A general note: Two-electrode voltage clamp holds a large cell at a set potential and records current.
Protocol: (§1) Xenopus oocytes were used in this study as cells for expression of human 5-HT3A receptor. All female frogs used in this experiment were obtained from the Korean Xenopus Resource Center for Research (KXRCR000001). […] Xenopus oocytes were extracted during ice incubation state and isolated as single oocytes using collagenase II (2 mg/mL) in OR2 buffer (82.5 mM NaCl, 2 mM KCl, 1 mM MgCl2, 5 mM HEPES, pH 7.4). Isolated oocytes were incubated with ND96 incubation buffer (96 mM NaCl, 2 mM KCl, 1 mM MgCl2, 1.8 mM CaCl2, 5 mM HEPES, 2.5 mM sodium pyruvate, and 50 mg/mL gentamycin, pH 7.4) at 18 °C until the experiment was performed. Human 5-HT3A receptor mRNA was injected into oocytes using a nanoinjector (Drummond Scientific, Broomall, PA, USA) with a mineral-filled 10 μL microdispenser (VWR, Piscataway, NJ, USA).
(§2) To confirm the KAE activity on the human 5-HT3A receptor, a two-electrode voltage clamp (OC-725C; Warner Instruments, Hamden, CT, USA) with a Digitata 1550A was used. For the experiment, induced-inward current was converted to digital data with pClamp 10 software (Axon Instruments, Union City, CA, USA). All experiments were performed at room temperature using an oocyte clamp equipped with Digidata. The membrane holding potential was −80 mV.
(§3) The voltage relationship experiment for confirming the relationship between induce-inward current and voltage, the voltage was varied from −80 mV to +60 mV using a ramp protocol. […] All recording data were analyzed using Clampfit 9.0 (Molecular Devices, San Jose, CA, USA). […]
(§4) All presented experiments were performed at least three times for scientific verification. […] Induced-inward current data were analyzed with SigmaPlot 10.0 software (Systat Software, Inc., San Jose, CA, USA). […]

Test [3] addresses T3, human 5-HT3A receptor T154A mutant (Homo sapiens, UniProt P46098, T176A).
T3 sequence (P46098 24-478 T176A): T1 sequence (P46098 24-478 N123A) with A100N, T153A
As to the kind of experiment: Two-electrode voltage clamp, I5-HT inhibition, T154A mutant. As to conditions: −80 mV.
Protocol: as §1, §2, §3, §4

Positions count from the first letter of the chain named.

The term IC50 denotes the point on the concentration scale where inhibition reaches its midpoint. Read a low IC50 as greater potency in that assay.

In the case of `O=c1c(O)c(-c2ccc(O)cc2)oc2cc(O)cc(O)c12` [KAE, kaempferol], the values for the half-maximal inhibitory concentration (IC50) in test [1], in test [2] and in test [3] were 56.4 ± 9.7 µM, 44.7 ± 9.1 µM and 33.4 ± 7.9 µM, respectively. The Vmax in test [1] (N101A, −80 mV) amounted to 83.7 ± 8.6%; in test [2], 82.6 ± 7.4%; in test [3], 73.5 ± 9.4%. The “n (Hill coefficient)” value in test [1] (N101A, −80 mV) was determined as 1.1 ± 0.6; in test [2], 1.8 ± 0.7; in test [3], 1.1 ± 0.4.
